The target of one test is T1, KRASG12D (Homo sapiens, UniProt P01116, G12D).
T1 construct: made in house; host or cells: E. coli BL21 (DE3)
The test is described as follows: Bio-Biochem-PPI-HTRF Ras-SOS1 interaction assay (KRAS G12D). It is filed as biochemical. As to conditions: 5 nM. The method, boiled down:
(§1)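 Compounds tested in duplicate (10 μM to 0.01 μM) for disruption of His-hSOS1 binding to GST-tagged wild-type or G12D K-Ras in HEPES pH 7.4 buffer. TR-FRET read (Eu donor, XL665 acceptor) after about 10 min or longer; IC50 derived from the 665/620 nm emission ratio.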
On the technique in general: Time-resolved FRET reads energy transfer from a long-lived donor to a nearby acceptor.

A further test has as its target T2, KRASwt (Homo sapiens, UniProt P01116).
T2 construct: made in house; host or cells: E. coli BL21 (DE3)
The test is described as follows: Bio-Biochem-PPI-HTRF Ras-SOS1 interaction assay (KRAS wt). Format: biochemical. As to conditions: 5 nM. In a few lines: as §1

T1 sequence (P01116 1-188 isoform P01116-2 G12D): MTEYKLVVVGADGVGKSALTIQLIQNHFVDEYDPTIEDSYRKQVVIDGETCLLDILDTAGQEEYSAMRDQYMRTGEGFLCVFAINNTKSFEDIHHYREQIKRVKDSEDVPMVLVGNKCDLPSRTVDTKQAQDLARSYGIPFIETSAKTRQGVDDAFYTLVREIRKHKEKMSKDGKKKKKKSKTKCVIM
T2 sequence (P01116 1-188 isoform P01116-2): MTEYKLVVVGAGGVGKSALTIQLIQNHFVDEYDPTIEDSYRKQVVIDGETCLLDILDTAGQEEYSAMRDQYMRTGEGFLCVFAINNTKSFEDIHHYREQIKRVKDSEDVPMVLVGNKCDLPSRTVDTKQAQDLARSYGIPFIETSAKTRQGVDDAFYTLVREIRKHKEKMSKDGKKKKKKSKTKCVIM

On to `N#Cc1c(N)sc2c(F)ccc(-c3c(Cl)cc4c(N5CCCCC6(CN(C(=O)N7CC[C@H]7C#N)C6)C5)nc(OC[C@@]56CCCN5C[C@H](F)C6)nc4c3F)c12` [compound 224, (2S)-1-(6-(7-(2-amino-3-cyano-7-fluorobenzo[b]thiophen-4-yl)-6-chloro-8-fluoro-2-(((2R,7aS)-2-fluorotetrahydro-1H-pyrrolizin-7a(5H)-yl)methoxy)quinazolin-4-yl)-2,6-diazaspiro[3.6]decane-2-carbonyl)azetidine-2-carbonitrile], for which the IC50 against KRASG12D and against KRASwt was less than 5 µM throughout.
As for `C#CN1CCC2(CCN(c3nc(OC[C@@]45CCCN4C[C@H](F)C5)nc4c(F)c(-c5ccc(F)c6sc(N)c(C#N)c56)c(Cl)cc34)C2)C1=O` (stereo partly drawn) [compound 225, 2-amino-4-(6-chloro-4-(7-ethynyl-6-oxo-2,7-diazaspiro[4.4]nonan-2-yl)-8-fluoro-2-(((2R,7aS)-2-fluorotetrahydro-1H-pyrrolizin-7a(5H)-yl)methoxy)quinazolin-7-yl)-7-fluorobenzo[b]thiophene-3-carbonitrile], the half-inhibitory concentration (IC50) against KRASG12D and against KRASwt was less than 5 µM each time.
For the compound `Nc1nc2c(-c3c(Cl)cc4c(N5CCNCC56CNC6)nc(OCC56CCCN5C[C@H](F)C6)nc4c3F)ccc(F)c2s1` (stereo partly drawn) [compound 226, 4-(6-chloro-8-fluoro-2-(((2R)-2-fluorotetrahydro-1H-pyrrolizin-7a(5H)-yl)methoxy)-4-(2,5,8-triazaspiro[3.5]nonan-5-yl)quinazolin-7-yl)-7-fluorobenzo[d]thiazol-2-amine], the IC50 on KRASG12D and on KRASwt was not below 5 µM each time.
Consider `N#Cc1c(N)sc2c(F)ccc(-c3c(Cl)cc4c(N5CCCCC6(CN(C(=O)C7(CC(F)F)CC7)C6)C5)nc(OC[C@@]56CCCN5C[C@H](F)C6)nc4c3F)c12` [compound 227, 2-amino-4-(6-chloro-4-(2-(1-(2,2-difluoroethyl)cyclopropane-1-carbonyl)-2,6-diazaspiro[3.6]decan-6-yl)-8-fluoro-2-(((2R,7aS)-2-fluorotetrahydro-1H-pyrrolizin-7a(5H)-yl)methoxy)quinazolin-7-yl)-7-fluorobenzo[b]thiophene-3-carbonitrile], for which the half-inhibitory concentration (IC50) against KRASG12D and at KRASwt was less than 5 µM each time.
With `CC1(C(=O)N2CC3(CCCCN(c4nc(OC[C@@]56CCCN5C[C@H](F)C6)nc5c(F)c(-c6ccc(F)c7sc(N)c(C#N)c67)c(Cl)cc45)C3)C2)CC1` [compound 228, 2-amino-4-(6-chloro-8-fluoro-2-(((2R,7aS)-2-fluorotetrahydro-1H-pyrrolizin-7a(5H)-yl)methoxy)-4-(2-(1-methylcyclopropane-1-carbonyl)-2,6-diazaspiro[3.6]decan-6-yl)quinazolin-7-yl)-7-fluorobenzo[b]thiophene-3-carbonitrile], the IC50 on KRASG12D and at KRASwt was less than 5 µM each time.
In the case of `N#Cc1c(N)sc2c(F)ccc(-c3c(Cl)cc4c(N5CCC(F)(F)CC6(CN(C(=O)C78CC(F)(C7)C8)C6)C5)nc(OC[C@@]56CCCN5C[C@H](F)C6)nc4c3F)c12` [compound 229, 2-amino-4-(6-chloro-4-(9,9-difluoro-2-(3-fluorobicyclo[1.1.1]pentane-1-carbonyl)-2,6-diazaspiro[3.6]decan-6-yl)-8-fluoro-2-(((2R,7aS)-2-fluorotetrahydro-1H-pyrrolizin-7a(5H)-yl)methoxy)quinazolin-7-yl)-7-fluorobenzo[b]thiophene-3-carbonitrile], the half-maximal inhibitory concentration (IC50) at KRASG12D and against KRASwt was less than 5 µM throughout.
Turning to `N#Cc1c(N)sc2c(F)ccc(-c3c(Cl)cc4c(N5CCCCC6(CN(C(=O)[C@@H]7CCOC7)C6)C5)nc(OC[C@@]56CCCN5C[C@H](F)C6)nc4c3F)c12` [compound 230, 2-amino-4-(6-chloro-8-fluoro-2-(((2R,7aS)-2-fluorotetrahydro-1H-pyrrolizin-7a(5H)-yl)methoxy)-4-(2-((R)-tetrahydrofuran-3-carbonyl)-2,6-diazaspiro[3.6]decan-6-yl)quinazolin-7-yl)-7-fluorobenzo[b]thiophene-3-carbonitrile], the half-inhibitory concentration (IC50) at KRASG12D and against KRASwt was less than 5 µM each time.
Turning to `N#Cc1c(N)sc2c(F)ccc(-c3c(Cl)cc4c(N5CCCCC6(CN(C(=O)N7CCCC7)C6)C5)nc(OC[C@@]56CCCN5C[C@H](F)C6)nc4c3F)c12` [compound 231, 2-amino-4-(6-chloro-8-fluoro-2-(((2R,7aS)-2-fluorotetrahydro-1H-pyrrolizin-7a(5H)-yl)methoxy)-4-(2-(pyrrolidine-1-carbonyl)-2,6-diazaspiro[3.6]decan-6-yl)quinazolin-7-yl)-7-fluorobenzo[b]thiophene-3-carbonitrile], the half-maximal inhibitory concentration (IC50) against KRASG12D and against KRASwt was less than 5 µM throughout.
As for `N#Cc1c(N)sc2c(F)ccc(-c3c(Cl)cc4c(N5CC(F)(F)CCC6(CN(C(=O)[C@@H]7CC7(F)F)C6)C5)nc(OC[C@@]56CCCN5C[C@H](F)C6)nc4c3F)c12` [compound 232, 2-amino-4-(6-chloro-4-(2-((S)-2,2-difluorocyclopropane-1-carbonyl)-8,8-difluoro-2,6-diazaspiro[3.6]decan-6-yl)-8-fluoro-2-(((2R,7aS)-2-fluorotetrahydro-1H-pyrrolizin-7a(5H)-yl)methoxy)quinazolin-7-yl)-7-fluorobenzo[b]thiophene-3-carbonitrile], the IC50 on KRASG12D and against KRASwt was less than 5 µM throughout.
In the case of `N#Cc1c(N)sc2c(F)ccc(-c3c(F)c4nc(OC[C@@]56CCCN5C[C@H](F)C6)nc(N5CCCCC6(CN(C(=O)C(F)F)C6)C5)c4c(=O)n3C3CC3)c12` [compound 233, 2-amino-4-(6-cyclopropyl-4-(2-(2,2-difluoroacetyl)-2,6-diazaspiro [3.6]decan-6-yl)-8-fluoro-2-(((2R,7aS)-2-fluorotetrahydro-1H-pyrrolizin-7a(5H)-yl)methoxy)-5-oxo-5,6-dihydropyrido[4,3-d]pyrimidin-7-yl)-7-fluorobenzo[b]thiophene-3-carbonitrile], the 50% inhibitory concentration (IC50) at KRASG12D and on KRASwt was less than 5 µM in each case.
As to `CN(C(=O)N1CC2(CCCCN(c3nc(OC[C@@]45CCCN4C[C@H](F)C5)nc4c(F)c(-c5ccc(F)c6sc(N)c(C#N)c56)c(Cl)cc34)C2)C1)C1CC1` [compound 234, 6-(7-(2-amino-3-cyano-7-fluorobenzo[b]thiophen-4-yl)-6-chloro-8-fluoro-2-(((2R,7aS)-2-fluorotetrahydro-1H-pyrrolizin-7a(5H)-yl)methoxy)quinazolin-4-yl)-N-cyclopropyl-N-methyl-2,6-diazaspiro[3.6]decane-2-carboxamide], the IC50 against KRASG12D and against KRASwt was less than 5 µM in each case.
Turning to `N#Cc1c(N)sc2c(F)ccc(-c3c(Cl)cc4c(N5CCCCC6(CN(C(=O)CC7CC7(F)F)C6)C5)nc(OC[C@@]56CCCN5C[C@H](F)C6)nc4c3F)c12` (stereo partly drawn) [compound 235, 2-amino-4-(6-chloro-4-(2-(2-(2,2-difluorocyclopropyl)acetyl)-2,6-diazaspiro[3.6]decan-6-yl)-8-fluoro-2-(((2R,7aS)-2-fluorotetrahydro-1H-pyrrolizin-7a(5H)-yl)methoxy)quinazolin-7-yl)-7-fluorobenzo[b]thiophene-3-carbonitrile], the IC50 on KRASG12D and at KRASwt was less than 5 µM each time.
As for `CN1CCC[C@H]1COc1nc2c(c(N3CCCCC4(CN(C(=O)C5CC5(F)F)C4)C3)n1)CCN(c1cccc3cccc(Cl)c13)C2` (stereo partly drawn) [compound 236, (6-(7-(8-chloronaphthalen-1-yl)-2-(((S)-1-methylpyrrolidin-2-yl)methoxy)-5,6,7,8-tetrahydropyrido[3,4-d]pyrimidin-4-yl)-2,6-diazaspiro[3.6]decan-2-yl)(2,2-difluorocyclopropyl)methanone], the concentration for half-maximal inhibition (IC50) at KRASG12D and against KRASwt was not below 5 µM throughout.
For the compound `N#Cc1c(N)sc2c(F)ccc(-c3c(Cl)cc4c(N5CCCCC6(CN(C(=O)C78CC(C(F)(F)F)(C7)C8)C6)C5)nc(OC[C@@]56CCCN5C[C@H](F)C6)nc4c3F)c12` [compound 237, 2-amino-4-(6-chloro-8-fluoro-2-(((2R,7aS)-2-fluorotetrahydro-1H-pyrrolizin-7a(5H)-yl)methoxy)-4-(2-(3-(trifluoromethyl)bicyclo[1.1.1]pentane-1-carbonyl)-2,6-diazaspiro[3.6]decan-6-yl)quinazolin-7-yl)-7-fluorobenzo[b]thiophene-3-carbonitrile], the half-inhibitory concentration (IC50) against KRASG12D and at KRASwt was less than 5 µM throughout.
Turning to `N#Cc1c(N)sc2c(F)ccc(-c3c(Cl)cc4c(N5CCCCC6(CN(C(=O)C7C8COCC87)C6)C5)nc(OC[C@@]56CCCN5C[C@H](F)C6)nc4c3F)c12` (stereo partly drawn) [compound 238, 4-(4-(2-(3-oxabicyclo[3.1.0]hexane-6-carbonyl)-2,6-diazaspiro [3.6]decan-6-yl)-6-chloro-8-fluoro-2-(((2R,7aS)-2-fluorotetrahydro-1H-pyrrolizin-7a(5H)-yl)methoxy)quinazolin-7-yl)-2-amino-7-fluorobenzo[b]thiophene-3-carbonitrile], the IC50 on KRASG12D and at KRASwt was less than 5 µM each time.
`N#Cc1c(N)sc2c(F)ccc(-c3c(Cl)cc4c(N5CCOCC6(CN(C(=O)[C@@H]7CC7(F)F)C6)C5)nc(OC[C@@]56CCCN5C[C@H](F)C6)nc4c3F)c12` [compound 239, 2-amino-4-(6-chloro-4-(2-((S)-2,2-difluorocyclopropane-1-carbonyl)-6-oxa-2,9-diazaspiro[3.6]decan-9-yl)-8-fluoro-2-(((2R,7aS)-2-fluorotetrahydro-1H-pyrrolizin-7a(5H)-yl)methoxy)quinazolin-7-yl)-7-fluorobenzo[b]thiophene-3-carbonitrile]: the IC50 at KRASG12D and against KRASwt was less than 5 µM throughout.

What is called IC50 is the concentration at which inhibition is half-maximal. Lower therefore signals greater potency.

The record behind these values is patent US20240109918A1, “HETEROCYCLIC COMPOUNDS AND USES THEREOF” (Kumquat Biosciences Inc., priority 2022, published 2024).
